In BindingDB's records for doi:10.1021/acs.jmedchem.9b00061 (Ajou University, 2019) one finds Kd data, which are given here for two compounds.

Where a SMILES comes first, the peptide text is derived from it. Bridges are numbered along the chain shown (N, C = ends).

The target of this assay is Toll-like receptor 4 (Homo sapiens, UniProt O00206). Put plainly: Binding affinity to recombinant human TLR4 assessed as dissociation constant up to 200 uM by surface plasmon resonance analysis. For orientation: Surface plasmon resonance follows binding to a sensor surface in real time, without labels.
Chain of Toll-like receptor 4 (O00206 whole entry): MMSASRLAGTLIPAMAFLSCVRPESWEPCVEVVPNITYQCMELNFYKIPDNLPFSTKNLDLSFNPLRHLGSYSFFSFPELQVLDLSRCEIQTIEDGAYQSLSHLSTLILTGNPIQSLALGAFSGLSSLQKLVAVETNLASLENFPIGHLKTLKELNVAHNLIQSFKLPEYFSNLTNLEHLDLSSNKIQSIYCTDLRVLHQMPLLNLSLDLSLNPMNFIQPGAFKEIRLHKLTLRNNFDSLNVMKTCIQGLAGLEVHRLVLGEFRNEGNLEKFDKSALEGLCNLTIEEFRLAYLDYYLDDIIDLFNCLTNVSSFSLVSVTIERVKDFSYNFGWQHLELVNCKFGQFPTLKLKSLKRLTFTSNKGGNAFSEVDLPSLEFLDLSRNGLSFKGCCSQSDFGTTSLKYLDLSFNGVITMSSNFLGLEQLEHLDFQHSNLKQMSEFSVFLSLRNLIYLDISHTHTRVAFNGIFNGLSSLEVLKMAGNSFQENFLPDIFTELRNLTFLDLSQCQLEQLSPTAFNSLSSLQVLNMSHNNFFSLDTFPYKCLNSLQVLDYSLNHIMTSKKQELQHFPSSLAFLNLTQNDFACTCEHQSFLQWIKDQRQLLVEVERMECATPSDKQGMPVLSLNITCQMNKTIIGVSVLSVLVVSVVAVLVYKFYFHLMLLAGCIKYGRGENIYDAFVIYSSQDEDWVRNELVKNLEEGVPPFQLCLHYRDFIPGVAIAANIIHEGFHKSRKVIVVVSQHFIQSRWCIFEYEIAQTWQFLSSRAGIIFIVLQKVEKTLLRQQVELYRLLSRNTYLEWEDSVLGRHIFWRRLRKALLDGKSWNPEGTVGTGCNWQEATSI

Take `CC[C@H](C)[C@@H]1NC(=O)[C@H](Cc2c[nH]c3ccccc23)NC(=O)[C@H](Cc2c[nH]c3ccccc23)NC(=O)[C@@H](NC(=O)[C@H](CO)NC(=O)[C@H](Cc2ccccc2)NC(=O)[C@@H](NC(=O)CNC(=O)[C@@H](N)CC(C)C)C(C)C)CC(=O)NCCCC[C@@H](C(=O)N[C@@H](CC(C)C)C(=O)N[C@H](C(=O)O)C(C)C)NC1=O` (H-LGVFSDWWIKLV-OH; lactam 6-10): the Kd (in general, the equilibrium constant for the complex coming apart) was determined as 1.4 nM.
For the compound H-LGVFSSWWIKLV-OH, the Kd was found to be 1.1 nM.
